Results: PubChem BioAssay (NCI)
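Grown in 96-well plates, cells were treated for 48 hours with each compound at five concentrations. Insufficient inhibition: endpoint recorded as highest concentration tested. At the GI50, growth is halved. Definition used: TGI = concentration required for complete inhibition of growth.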

Columns and labels:
Experiment in all cases: growth of human tumour cells (NCI), 48 h
[1] = tested on: CAKI-1 renal
[2] = tested on: HL-60(TB) leukemia
[3] = tested on: K-562 leukemia
[4] = tested on: MCF7 breast
[5] = tested on: NCI-H23 lung
[6] = tested on: RPMI-8226 leukemia
[7] = tested on: SK-MEL-2 melanoma
[8] = tested on: SNB-19 CNS
[9] = tested on: UACC-62 melanoma
[10] = tested on: DU-145 prostate

| Structure (SMILES) | TGI [1] | TGI [2] | TGI [3] | TGI [4] | TGI [5] | TGI [6] | TGI [7] | TGI [8] | TGI [9] | GI50 [1] | GI50 [2] | GI50 [3] | GI50 [5] | GI50 [6] | GI50 [7] | GI50 [8] | GI50 [9] | TGI [10] |
| --- | --- | --- | --- | --- | --- | --- | --- | --- | --- | --- | --- | --- | --- | --- | --- | --- | --- | --- |
| O=C1Nc2ccccc2Nc2ccncc21 | > 100 µM | > 100 µM | > 100 µM | > 100 µM | > 100 µM | > 100 µM | > 100 µM | > 100 µM | > 100 µM | – | – | – | – | – | – | – | – | – |
| CC(=O)[CH-]C(=O)c1ccccc1.CC(=O)[CH-]C(=O)c1ccccc1.C[C@]12CCC(=O)C=C1CC[C@@H]1C2CC[C@@]2(C)C1CC[C@]2(C)[O-].C[C@]12CCC(=O)C=C1CC[C@@H]1C2CC[C@@]2(C)C1CC[C@]2(C)[O-].Cl.[Ti+4] (some centres not stated) | 38.4 µM | 13.1 µM | > 100 µM | – | 35.2 µM | > 100 µM | 33.2 µM | 29.3 µM | 42.9 µM | 13.3 µM | 2.87 µM | 3.76 µM | 14.2 µM | 15.4 µM | 13.9 µM | 14 µM | 12.8 µM | – |
| COc1cccc(/C=N/[N-]C(N)=O)c1[O-].[Cu+2].[OH3+].c1ccc(-c2ccccn2)nc1 | 83.7 µM | > 79.1 µM | 66 µM | – | 37.3 µM | > 100 µM | 45.1 µM | 38.1 µM | 31.3 µM | – | 40.6 µM | – | – | – | – | – | – | – |
| Cc1nc2ccccc2c(/C=C/c2ccc(Cl)cc2)c1C(=O)/C=C/c1ccc(Cl)cc1 | – | 4.37 µM | > 100 µM | – | – | 6.34 µM | – | 2.94 µM | 3.27 µM | – | 1.46 µM | 1.28 µM | – | 1.2 µM | – | 1.57 µM | 1.59 µM | – |
| COc1ccc2oc(=O)c(-c3csc(C)n3)cc2c1 | > 100 µM | > 100 µM | > 100 µM | > 100 µM | – | > 100 µM | > 100 µM | > 100 µM | 73.1 µM | – | – | – | – | – | – | – | – | > 100 µM |
| CC(=N\N)/C(C)=N/N=C(C)/C(C)=N/N=C(C)/C(C)=N/N | > 100 µM | > 100 µM | > 100 µM | > 100 µM | > 100 µM | > 100 µM | > 100 µM | > 100 µM | – | – | – | – | – | – | – | – | – | > 100 µM |
| CC(C)C1N(C)c2ccc(Cl)cc2[C@H]2c3ccccc3CCN12 (some centres not stated) | – | > 100 µM | > 100 µM | > 100 µM | > 100 µM | 79.8 µM | 74.1 µM | > 100 µM | > 100 µM | – | – | – | – | – | – | – | – | > 100 µM |
| C[N+]1(CCN[N+]2(C)CCCCC2)CCc2ccccc2C1 (configuration not stated) | > 100 µM | – | > 100 µM | > 100 µM | > 100 µM | > 100 µM | > 100 µM | > 100 µM | > 100 µM | – | – | – | – | – | – | – | – | > 100 µM |
| O=C(NC(=S)NC(=O)c1cc(O)c(O)c(O)c1)c1cc(O)c(O)c(O)c1 | 44.3 µM | – | – | > 100 µM | 55.4 µM | > 100 µM | 40.4 µM | 52.8 µM | 49.4 µM | – | – | – | – | – | – | – | – | 63.8 µM |
| C(=C\N1CCCCC1)/c1nnnn1-c1ccccc1 | 38.2 µM | 37.7 µM | > 100 µM | – | > 100 µM | 59.6 µM | – | > 100 µM | 54.5 µM | – | – | – | – | – | – | – | – | > 100 µM |
| CC(C)(C)OC(=O)NCCCCC(NC(=O)c1ccccc1)C(N)=O (configuration not stated) | > 100 µM | – | > 100 µM | > 100 µM | > 100 µM | > 100 µM | > 100 µM | > 100 µM | > 100 µM | – | – | – | – | – | – | – | – | > 100 µM |
| CC1C(c2ccc(Cl)cc2)c2cc3c(cc2OC1N1CCOCC1)OCO3 (configuration not stated) | 71.5 µM | – | > 100 µM | > 100 µM | > 100 µM | > 100 µM | > 100 µM | > 100 µM | > 100 µM | – | – | – | – | – | – | – | – | > 100 µM |
| O=C(Nc1ccccc1)c1cc(S(=O)(=O)N2CCNNC2=O)c(S)cc1Cl | > 100 µM | > 100 µM | > 100 µM | > 100 µM | – | > 100 µM | > 100 µM | > 100 µM | > 100 µM | – | – | – | – | – | – | – | – | > 100 µM |
| CCOC(=O)Cc1nc2c(N)ncnc2n1C1OC(COC(C)=O)C(OC(C)=O)C1OC(C)=O (configuration not stated) | > 100 µM | > 100 µM | > 100 µM | > 100 µM | > 100 µM | > 100 µM | – | > 100 µM | > 100 µM | – | – | – | – | – | – | – | – | > 100 µM |
| CC(=O)N(O)c1ccc(-c2nc3ccccc3s2)cc1 | > 100 µM | – | > 100 µM | – | > 100 µM | > 100 µM | > 100 µM | > 100 µM | > 100 µM | – | – | – | – | – | – | – | – | > 100 µM |
| Cc1ccccc1NC(=O)Cc1csc2[n+]1C(=O)/C(=C/c1ccc([N+](=O)[O-])cc1)S2 | 61.8 µM | > 100 µM | – | > 100 µM | 84.3 µM | – | > 100 µM | > 100 µM | – | – | – | – | – | – | – | – | – | > 100 µM |
| NC(Cc1ccc(S(=O)(=O)O)cc1)C(=O)NC(Cc1ccc(S(=O)(=O)O)cc1)C(=O)O (configuration not stated) | > 100 µM | > 100 µM | > 100 µM | > 100 µM | > 100 µM | > 100 µM | > 100 µM | – | > 100 µM | – | – | – | – | – | – | – | – | > 100 µM |
| Cc1nc2c(=S)n(C)ncc2[nH]1 | > 100 µM | > 100 µM | > 100 µM | > 100 µM | > 100 µM | > 100 µM | > 100 µM | – | > 100 µM | – | – | – | – | – | – | – | – | – |
| NNC(=O)c1cc(=O)[nH][nH]1 | > 100 µM | – | > 100 µM | > 100 µM | > 100 µM | > 100 µM | > 100 µM | > 100 µM | > 100 µM | – | – | – | – | – | – | – | – | > 100 µM |
| CC(=O)Oc1ccc(/C=C/C(=O)O[C@@H](C(=O)O)[C@@H](OC(=O)/C=C/c2ccc(OC(C)=O)c(OC(C)=O)c2)C(=O)O)cc1OC(C)=O | > 100 µM | – | > 100 µM | > 100 µM | > 100 µM | > 100 µM | > 100 µM | > 100 µM | > 100 µM | – | – | – | – | – | – | – | – | > 100 µM |
| S=C(Nc1ccc2cn[nH]c2c1)Nc1ccc2cn[nH]c2c1 | > 100 µM | – | > 100 µM | > 100 µM | > 100 µM | > 100 µM | > 100 µM | > 100 µM | > 100 µM | – | – | – | – | – | – | – | – | > 100 µM |
| C[C@H](C/C=C/C(C)(C)O)[C@H]1CC[C@@]2(C)[C@@H]3CC[C@H]4C(C)(C)[C@@H](O)CC[C@@]45C[C@@]35CC[C@]12C | – | – | 70.3 µM | > 100 µM | – | 52.8 µM | 37.7 µM | 54.9 µM | 56 µM | – | – | – | – | – | – | – | – | 28.8 µM |
| CN(C)c1cc[n+](-c2nc(/N=C(\[O-])C(F)(F)F)nc3c2ncn3C2CC(O)C(CO)O2)cc1 (configuration not stated) | – | > 100 µM | > 100 µM | > 100 µM | > 100 µM | > 100 µM | > 100 µM | > 100 µM | > 100 µM | – | – | – | – | – | – | – | – | > 100 µM |
